Reference: patent US12281122B1, “PI3K inhibitors” (Cogent Biosciences, Inc., priority 2023, dated 2025)
Like-named read-outs stand apart in the source and are kept apart here.

Tests used:
[1] = Mouse PK, IV and PO; conditions: in vivo
[2] = molecular target: PI3Kα (Homo sapiens, UniProt P42336); experiment: PI3Kα enzyme assay (Transcreener ADP2 TR-FRET Red Assay); format: biochemical; conditions: purified recombinant full-length protein; 2 hours pre-incubation with compound; read-out: PI3Kα WT IC50
Sequence of PI3Kα (P42336 whole entry): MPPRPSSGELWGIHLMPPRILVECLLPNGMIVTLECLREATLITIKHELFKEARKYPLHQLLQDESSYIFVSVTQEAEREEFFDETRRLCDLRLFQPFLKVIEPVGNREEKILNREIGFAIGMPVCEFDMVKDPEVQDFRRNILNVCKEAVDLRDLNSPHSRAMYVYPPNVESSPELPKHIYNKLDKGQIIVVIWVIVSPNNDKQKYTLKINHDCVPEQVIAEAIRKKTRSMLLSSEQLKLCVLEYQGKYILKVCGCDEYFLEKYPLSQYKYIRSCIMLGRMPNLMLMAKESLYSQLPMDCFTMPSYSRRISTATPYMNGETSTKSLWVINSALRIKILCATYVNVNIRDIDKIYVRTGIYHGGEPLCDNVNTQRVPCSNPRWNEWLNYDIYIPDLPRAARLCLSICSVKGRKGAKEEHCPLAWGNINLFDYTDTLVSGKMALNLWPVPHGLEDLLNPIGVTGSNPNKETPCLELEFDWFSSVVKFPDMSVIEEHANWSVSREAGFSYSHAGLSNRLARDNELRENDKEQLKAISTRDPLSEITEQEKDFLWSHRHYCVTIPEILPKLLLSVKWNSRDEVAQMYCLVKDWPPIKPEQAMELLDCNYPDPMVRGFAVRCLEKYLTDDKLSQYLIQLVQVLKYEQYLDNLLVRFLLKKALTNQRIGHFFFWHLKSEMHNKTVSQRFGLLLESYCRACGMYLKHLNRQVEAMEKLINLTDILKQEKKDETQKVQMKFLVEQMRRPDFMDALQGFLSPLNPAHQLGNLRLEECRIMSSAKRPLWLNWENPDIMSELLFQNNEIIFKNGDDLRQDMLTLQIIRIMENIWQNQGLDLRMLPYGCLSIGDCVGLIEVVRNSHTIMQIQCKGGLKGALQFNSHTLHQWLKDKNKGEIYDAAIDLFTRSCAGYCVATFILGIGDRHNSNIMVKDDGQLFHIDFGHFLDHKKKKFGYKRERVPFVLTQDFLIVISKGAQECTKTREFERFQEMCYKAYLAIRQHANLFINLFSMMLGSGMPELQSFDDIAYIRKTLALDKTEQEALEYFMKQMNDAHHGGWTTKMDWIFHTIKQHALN
Sequence of PI3Kα (P27986 2-724 partner): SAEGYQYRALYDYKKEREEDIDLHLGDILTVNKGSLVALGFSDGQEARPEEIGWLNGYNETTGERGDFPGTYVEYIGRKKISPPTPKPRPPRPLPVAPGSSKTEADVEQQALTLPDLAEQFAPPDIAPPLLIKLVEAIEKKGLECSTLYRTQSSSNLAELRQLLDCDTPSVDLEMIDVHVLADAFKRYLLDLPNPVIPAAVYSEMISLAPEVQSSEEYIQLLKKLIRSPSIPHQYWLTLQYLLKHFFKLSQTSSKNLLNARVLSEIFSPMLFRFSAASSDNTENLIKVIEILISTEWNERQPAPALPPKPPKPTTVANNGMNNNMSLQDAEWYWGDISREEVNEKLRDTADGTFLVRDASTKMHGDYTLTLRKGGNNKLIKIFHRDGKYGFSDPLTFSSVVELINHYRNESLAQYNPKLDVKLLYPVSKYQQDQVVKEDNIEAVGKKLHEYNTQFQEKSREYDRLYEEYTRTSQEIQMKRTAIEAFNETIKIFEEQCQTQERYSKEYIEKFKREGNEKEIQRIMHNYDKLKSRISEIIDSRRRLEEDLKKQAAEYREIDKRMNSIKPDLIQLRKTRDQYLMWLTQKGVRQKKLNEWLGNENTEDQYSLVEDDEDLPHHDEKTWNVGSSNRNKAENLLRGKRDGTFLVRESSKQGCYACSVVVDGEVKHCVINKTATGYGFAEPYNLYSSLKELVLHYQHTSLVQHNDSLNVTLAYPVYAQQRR
Procedure, shortened: (§1)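 Purified recombinant full-length enzymes pre-incubated 2 h at room temperature with compounds (11-point 1:3 dilutions, typically 50,000–0.85 nM), then started with ATP/PI(4,5)P2 diC8 and run 60 min at room temperature in 40 mM HEPES pH 7.5, 20 mM NaCl, 25 mM MgCl2, 0.01% Triton X-100. ADP detected by TR-FRET 665/615 ratio; IC50 from four-parameter fit of percent of control.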

[3] = molecular target: PI3Kα H1047R (Homo sapiens, UniProt P42336, H1047R); experiment: PI3Kα H1047R enzyme assay (Transcreener ADP2 TR-FRET Red Assay); format: biochemical; conditions: purified recombinant full-length protein; 2 hours pre-incubation with compound
Sequence of PI3Kα H1047R (P42336 whole entry H1047R): as the sequence (P42336 whole entry) above, with H1047R counted along it
Sequence of PI3Kα H1047R (P27986 2-724 partner): as the sequence (P27986 2-724 partner) above
Procedure, shortened: as §1

[4] = test system: T47D (PI3Kα-H1047R) cell line; experiment: HTRF phospho-AKT(S473) cell assay in T47D cells; format: cell-based, human; conditions: Homo sapiens; T47D (PI3Kα-H1047R) cells, HTRF phospho-AKT(S473), 2 hours compound incubation
Procedure, shortened: (§2)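 HTRF read-out of phospho-AKT(S473) in lysates gave IC50 values after 2 h compound exposure at 37° C. Dose series was 12 points at 1:3, topping at 5 μM for T47D and 10 μM for SKBR3. Only SKBR3 received 70 ng/ml PDGF-BB during the last 15 minutes.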

[5] = test system: SKBR3 (PI3Kα-Wild Type) cell line; experiment: HTRF phospho-AKT(S473) cell assay in SKBR3 cells; format: cell-based, human; conditions: Homo sapiens, SK-BR-3; SKBR3 (PI3Kα-Wild Type) cells, HTRF phospho-AKT(S473), 2 hours compound incubation, PDGF-BB stimulated
Procedure, shortened: as §2

| clearance ([1]; IV dose 3 mg/kg, read-out: PK-Mouse: IV Cl) | AUC(0-inf) ([1]; IV dose 3 mg/kg, read-out: PK-Mouse: IV-AUCinf) | Cmax ([1]; PO dose 30 mg/kg, 20% Captisol (aq), fed) | AUC(0-inf) ([1]; PO dose 30 mg/kg, 20% Captisol (aq), fed, read-out: PK-Mouse: PO AUCinf) | bioavailability ([1]; PO dose 30 mg/kg, 20% Captisol (aq), fed, read-out: PK-Mouse: PO F (%)) | IC50 [2] | IC50 [3] | IC50 [4] | IC50 [5] | SMILES |
| --- | --- | --- | --- | --- | --- | --- | --- | --- | --- |
| 24.3 mL/min/kg | 2070 ng·h/mL | 2490 ng/mL | 8850 ng·h/mL | 43% |  |  |  |  | Cc1cc([C@@H](C)Nc2ccc(Cl)nc2C(=O)O)c2nc(N3Cc4ccc(F)cc4C3)n(C)c(=O)c2c1 [Compound 1 acid derivative, (R)-6-chloro-3-((1-(2-(5-fluoroisoindolin-2-yl)-3,6-dimethyl-4-oxo-3,4-dihydroquinazolin-8-yl)ethyl)amino)picolinic acid, reference compound] |
|  |  |  |  |  | ≥ 1000 nM | ≥ 1000 nM | 1000 to 5000 nM | ≥ 5000 nM | Cc1cc([C@@H](C)Nc2cc(C)c(F)nc2C(=O)NS(C)(=O)=O)c2nc(N3Cc4ccc(F)cc4C3)n(C)c(=O)c2c1 [Compound 69, (R)-6-fluoro-3-((1-(2-(5-fluoro-isoindolin-2-yl)-3,6-dimethyl-4-oxo-3,4-dihydroquinazolin-8-yl)ethyl)amino)-5-methyl-N-(methylsulfonyl)picolinamide] |
|  |  |  |  |  | ≥ 1000 nM | 100 to 250 nM | < 250 nM | 1000 to 5000 nM | CCn1cc2c(n1)CN(c1nc3c([C@@H](C)Nc4ccc(Cl)nc4C(=O)NS(C)(=O)=O)cc(C)cc3c(=O)n1C)C2 [Compound 44, (R)-6-chloro-3-((1-(2-(2-ethyl-2,6-dihydropyrrolo[3,4-c]pyrazol-5(4H)-yl)-3,6-dimethyl-4-oxo-3,4-dihydroquinazolin-8-yl)ethyl)amino)-N-(methylsulfonyl) picolinamide] |
|  |  |  |  |  | ≥ 1000 nM | 100 to 250 nM | 250 to 500 nM | 1000 to 5000 nM | C[C@@H](Nc1ccc(Cl)nc1C(=O)NS(C)(=O)=O)c1cc(F)cc2c(=O)n(C)c(N3CCc4ccccc4C3)nc12 [Compound 31, (R)-6-chloro-3-((1-(2-(3,4-dihydroisoquinolin-2(1H)-yl)-6-fluoro-3-methyl-4-oxo-3,4-dihydroquinazolin-8-yl)ethyl)amino)-N-(methylsulfonyl) picolinamide] |
|  |  |  |  |  | ≥ 1000 nM | ≥ 1000 nM | 1000 to 5000 nM | ≥ 5000 nM | Cc1cc([C@@H](C)Nc2cn(C)nc2C(=O)NS(C)(=O)=O)c2nc(N3Cc4ccc(F)cc4C3)n(C)c(=O)c2c1 (single isomer, unassigned) [Compound 106, 4-((1-(2-(5-fluoroisoindolin-2-yl)-3,6-dimethyl-4-oxo-3,4-dihydroquinazolin-8-yl)ethyl)amino)-1-methyl-N-(methylsulfonyl)-1H-pyrazole-3-carboxamide] |
|  |  |  |  |  | ≥ 1000 nM | 500 to 1000 nM | 250 to 500 nM | 1000 to 5000 nM | Cc1cc([C@@H](C)Nc2ccc(Cl)nc2C(=O)NS(C)(=O)=O)c2nc(N3CC4(C3)CC(F)(F)C4)n(C)c(=O)c2c1 [Compound 9, (R)-6-chloro-3-((1-(2-(6,6-difluoro-2-azaspiro[3.3]heptan-2-yl)-3,6-dimethyl-4-oxo-3,4-dihydroquinazolin-8-yl)ethyl)amino)-N-(methylsulfonyl) picolinamide] |
|  |  |  |  |  | ≥ 1000 nM | ≥ 1000 nM | 1000 to 5000 nM | ≥ 5000 nM | Cc1cc([C@@H](C)Nc2ccc(Cl)nc2C(=O)NS(C)(=O)=O)c2nc(NC34CC(C3)C4)n(C)c(=O)c2c1 [Compound 6, (R)-3-((1-(2-(bicyclo[1.1.1]pentan-1-ylamino)-3,6-dimethyl-4-oxo-3,4-dihydroquinazolin-8-yl)ethyl)amino)-6-chloro-N-(methylsulfonyl) picolinamide] |
|  |  |  |  |  | ≥ 1000 nM | ≥ 1000 nM | 500 to 1000 nM | 1000 to 5000 nM | Cc1cc([C@@H](C)Nc2ccc(Cl)nc2C(=O)NS(C)(=O)=O)c2nc(NCC3CC(F)(F)C3)n(C)c(=O)c2c1 [Compound 20, (R)-6-chloro-3-((1-(2-(((3,3-difluorocyclobutyl)methyl)amino)-3,6-dimethyl-4-oxo-3,4-dihydroquinazolin-8-yl)ethyl)amino)-N-(methylsulfonyl) picolinamide] |
|  |  |  |  |  | ≥ 1000 nM | ≥ 1000 nM | 1000 to 5000 nM | ≥ 5000 nM | Cc1cc([C@H](C)Nc2ccccc2S(=O)(=O)NC(=O)C(F)F)c2nc(N3Cc4ccc(F)cc4C3)n(C)c(=O)c2c1 (single isomer, unassigned) [Compound 103, 2,2-difluoro-N-((2-((1-(2-(5-fluoroisoindolin-2-yl)-3,6-dimethyl-4-oxo-3,4-dihydroquinazolin-8-yl)ethyl)amino)phenyl)sulfonyl)acetamide] |
|  |  |  |  |  | ≥ 1000 nM | 250 to 500 nM | < 250 nM | 1000 to 5000 nM | C[C@@H](Nc1ccc(Cl)nc1C(=O)NS(C)(=O)=O)c1cc(F)cc2c(=O)n(C)c(N3CCC(F)(F)CC3)nc12 [Compound 3, (R)-6-chloro-3-((1-(2-(4,4-difluoropiperidin-1-yl)-6-fluoro-3-methyl-4-oxo-3,4-dihydroquinazolin-8-yl)ethyl)amino)-N-(methylsulfonyl) picolinamide] |
|  |  |  |  |  | ≥ 1000 nM | ≥ 1000 nM | 1000 to 5000 nM | 1000 to 5000 nM | C[C@@H](Nc1cccnc1C(=O)NS(C)(=O)=O)c1cc(F)cc2c(=O)n(C)c(N3Cc4ccc(F)cc4C3)nc12 [Compound 60, (R)-3-((1-(6-fluoro-2-(5-fluoro-isoindolin-2-yl)-3-methyl-4-oxo-3,4-dihydroquinazolin-8-yl)ethyl)amino)-N-(methylsulfonyl) picolinamide] |
|  |  |  |  |  | ≥ 1000 nM | 500 to 1000 nM | 250 to 500 nM | 1000 to 5000 nM | C[C@@H](Nc1ccc(Cl)nc1C(=O)NS(C)(=O)=O)c1cccc2c(=O)n(C)c(N3Cc4cnn(C)c4C3)nc12 [Compound 38, (R)-6-chloro-3-((1-(3-methyl-2-(1-methyl-4,6-dihydropyrrolo[3,4-c]pyrazol-5(1H)-yl)-4-oxo-3,4-dihydroquinazolin-8-yl)ethyl)amino)-N-(methylsulfonyl) picolinamide] |
|  |  |  |  |  | ≥ 1000 nM | ≥ 1000 nM | 500 to 1000 nM | 1000 to 5000 nM | Cc1cc([C@@H](C)Nc2ccc(Cl)nc2C(=O)NS(C)(=O)=O)c2nc(N3CCC(F)(F)CC3)n(C)c(=O)c2c1 [Compound 57, (R)-6-chloro-3-((1-(2-(4,4-difluoropiperidin-1-yl)-3,6-dimethyl-4-oxo-3,4-dihydroquinazolin-8-yl)ethyl)amino)-N-(methylsulfonyl) picolinamide] |
|  |  |  |  |  | ≥ 1000 nM | ≥ 1000 nM | 500 to 1000 nM | 1000 to 5000 nM | Cc1cc([C@@H](C)Nc2ccc(Cl)nc2C(=O)NS(C)(=O)=O)c2nc(N3CC4(COC4)C3)n(C)c(=O)c2c1 [Compound 46, (R)-6-chloro-3-((1-(3,6-dimethyl-4-oxo-2-(2-oxa-6-azaspiro[3.3]heptan-6-yl)-3,4-dihydroquinazolin-8-yl)ethyl)amino)-N-(methylsulfonyl) picolinamide] |
|  |  |  |  |  | ≥ 1000 nM | ≥ 1000 nM | 250 to 500 nM | ≥ 5000 nM | Cc1cc([C@@H](C)Nc2ccccc2S(N)(=O)=O)c2nc(N3Cc4ccc(F)cc4C3)n(C)c(=O)c2c1 (single isomer, unassigned) [Compound 104, 2-((1-(2-(5-fluoroisoindolin-2-yl)-3,6-dimethyl-4-oxo-3,4-dihydroquinazolin-8-yl)ethyl)amino) benzenesulfonamide] |
|  |  |  |  |  | ≥ 1000 nM | 500 to 1000 nM | < 250 nM | 1000 to 5000 nM | C[C@@H](Nc1ccc(Cl)nc1C(=O)NS(C)(=O)=O)c1cccc2c(=O)n(C)c(N3CCC(F)(F)CC3)nc12 [Compound 39, (R)-6-chloro-3-((1-(2-(4,4-difluoropiperidin-1-yl)-3-methyl-4-oxo-3,4-dihydroquinazolin-8-yl)ethyl)amino)-N-(methylsulfonyl) picolinamide] |
|  |  |  |  |  | < 100 nM | 100 to 250 nM | 250 to 500 nM | 1000 to 5000 nM | C[C@@H](Nc1ccc(Cl)nc1C(=O)NS(C)(=O)=O)c1cc(F)cc2c(=O)n(C)c(N3Cc4ccc(F)cc4C3)nc12 [Compound 66, (R)-6-chloro-3-((1-(6-fluoro-2-(5-fluoroisoindolin-2-yl)-3-methyl-4-oxo-3,4-dihydroquinazolin-8-yl)ethyl)amino)-N-(methylsulfonyl) picolinamide] |
|  |  |  |  |  | ≥ 1000 nM | ≥ 1000 nM | 1000 to 5000 nM | ≥ 5000 nM | Cc1cc([C@@H](C)Nc2cc(F)cnc2C(=O)NS(C)(=O)=O)c2nc(N3Cc4ccc(F)cc4C3)n(C)c(=O)c2c1 [Compound 68, (R)-5-fluoro-3-((1-(2-(5-fluoro-isoindolin-2-yl)-3,6-dimethyl-4-oxo-3,4-dihydroquinazolin-8-yl)ethyl)amino)-N-(methylsulfonyl) picolinamide] |
|  |  |  |  |  | ≥ 1000 nM | 250 to 500 nM | 250 to 500 nM | 1000 to 5000 nM | Cc1cc([C@@H](C)Nc2ccc(Cl)nc2C(=O)NS(C)(=O)=O)c2nc(N3CCC3)n(C)c(=O)c2c1 [Compound 15] |
